Experimental data published in PubChem BioAssay AID248 (DTP/NCI, 2004).
Inconclusive results and toxic doses are left out.

Test system: L1210 leukemia ip in BDF1 mice, survival T/C
Assay: NCI In Vivo Anticancer Drug Screen. Data for tumor model L1210 Leukemia (intraperitoneal) in B6D2F1 (BDF1) mice
Details: endpoint: mean survival time, higher = longer survival
Outline: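 Read-out is survival time, reported as the treated-group measurement over the vehicle-control measurement.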

Compound: CCCCSC(C)=N
- T/C (dose: 100.0 mg/kg/injection, schedule: Q04DX002 (ip), vehicle: saline): 97 % of control
- T/C (dose: 200.0 mg/kg/injection, schedule: Q04DX002 (ip), vehicle: saline): 105 % of control
- T/C (dose: 400.0 mg/kg/injection, schedule: Q04DX002 (ip), vehicle: saline): 97 % of control

Compound: OC1CCC2C=CCC1S2 (configuration not stated)
- T/C (dose: 100.0 mg/kg/injection, schedule: Q01DX009 (ip), vehicle: gum acacia): 101 % of control
- T/C (dose: 200.0 mg/kg/injection, schedule: Q01DX009 (ip), vehicle: gum acacia): 100 % of control
- T/C (dose: 400.0 mg/kg/injection, schedule: Q01DX009 (ip), vehicle: gum acacia): 97 % of control

Compound: CC1(C)OC2C(CO)OC(n3cnc4c(=O)[nH]cnc43)C2O1 (configuration not stated)
- T/C (dose: 75.0 mg/kg/injection, schedule: Q01DX001 (ip), vehicle: saline): 102 % of control
- T/C (dose: 150.0 mg/kg/injection, schedule: Q01DX001 (ip), vehicle: saline): 92 % of control

Compound: CCCCCCC(C)OC(=O)CCSCCC(=O)OC(C)CCCCCC (configuration not stated)
- T/C (dose: 100.0 mg/kg/injection, schedule: Q01DX001 (ip), vehicle: saline): 98 % of control
- T/C (dose: 200.0 mg/kg/injection, schedule: Q01DX001 (ip), vehicle: saline): 94 % of control
- T/C (dose: 400.0 mg/kg/injection, schedule: Q01DX001 (ip), vehicle: saline): 86 % of control

Compound: CC(=O)O[C@H]1CC[C@@]2(C)C(=CC[C@H]3[C@@H]4C[C@@H](N5CC5)[C@H](C(C)=O)[C@@]4(C)CC[C@@H]32)C1
- T/C (dose: 50.0 mg/kg/injection, schedule: Q01DX001 (sc), vehicle: steriod suspending solution): 100 % of control
- T/C (dose: 100.0 mg/kg/injection, schedule: Q01DX001 (sc), vehicle: steriod suspending solution): 102 % of control
- T/C (dose: 200.0 mg/kg/injection, schedule: Q01DX001 (sc), vehicle: steriod suspending solution): 107 % of control
- T/C (dose: 400.0 mg/kg/injection, schedule: Q01DX001 (sc), vehicle: steriod suspending solution): 117 % of control

Compound: NCCSC(c1ccccc1)(c1ccccc1)c1ccccc1
- T/C (dose: 25.0 mg/kg/injection, schedule: Q01DX009 (ip), vehicle: saline): 94 % of control
- T/C (dose: 50.0 mg/kg/injection, schedule: Q01DX009 (ip), vehicle: saline): 103 % of control
- T/C (dose: 100.0 mg/kg/injection, schedule: Q01DX009 (ip), vehicle: saline): 107 % of control

Compound: CCCCCCCCCCC[CH2][Hg][CH2]CCCCCCCCCCC
- T/C (dose: 100.0 mg/kg/injection, schedule: Q04DX003 (ip), vehicle: Klucel (hydroxypropylcellulose) (HPC)): 96 % of control
- T/C (dose: 200.0 mg/kg/injection, schedule: Q04DX003 (ip), vehicle: Klucel (hydroxypropylcellulose) (HPC)): 89 % of control
- T/C (dose: 400.0 mg/kg/injection, schedule: Q04DX003 (ip), vehicle: Klucel (hydroxypropylcellulose) (HPC)): 87 % of control

Compound: C/C=C/CC1=C(O)c2ccccc2C(=O)C1=O
- T/C (dose: 100.0 mg/kg/injection, schedule: Q01DX001 (ip), vehicle: water): 98 % of control
